Each structure is given as a SMILES string.

Common to all, as to experiment: Affymetrix microarray gene expression in aorta post-infarction
Assay type in all cases: in vivo, rat

Assay [1] has as its system acyl-CoA thioesterase (ACOT8). As to conditions: 2 weeks, infarcted rats with or without captopril. An excerpt: (§1) After intubation, rats were ventilated continuously (room air) using a small animal ventilator (Model 683, Harvard Apparatus, Holliston, Mass.). A left lateral thoracotomy incision was made along the 5th intercostal space and after the pericardium was opened, the heart was exteriorized using a retention suture placed at the apex. The left anterior descending coronary artery (LAD) was ligated twice using 6-0 prolene suture (Ethicon, Cornelia, Ga.). After chest closure with running 3-0 vicryl suture (Ethicon), rats were put in a recovery chamber with a heating pad and warming light. The post-operative survival rate reached 80%. […] Rats were fed a standard diet of Teklad rodent feed (Harlan) ad libitum and kept on a 12:12 h light-dark cycle. Rats were sacrificed at designated time intervals of 2 weeks and 4 weeks after surgery. […] Isolation of total RNA: […] Surrounding peri-adventitial tissues, fat, and endothelium were then carefully cleaned away and removed. The remaining vascular smooth muscle was then frozen with liquid nitrogen, pulverized into fine powder, and resuspended in 600 μl of Buffer RLT with β-ME (10 μl β-ME: 1 ml Buffer RLT, Qiagen, Valencia, Calif.). The lysate was pipetted directly onto a QIAshredder spin column (Qiagen) placed in a 2 ml collection tube and centrifuged for 5 minutes at 14000 rpm, 4° C. The supernatant was transferred to a new microcentrifuge tube and 1 volume of 70% ethanol was added and mixed. The cleared lysate was then transferred to an RNeasy mini-column (Qiagen) placed in a 2 ml collection tube and spun for 15 seconds at ≧10,000 rpm, 4° C. The flow-through was discarded and 700 μl of Buffer RW1 (Qiagen) was added to the RNeasy column. After the column was spun for 15 seconds at ≧10,000 rpm (4° C.), it was transferred into a new 2 ml collection tube, washed, spun twice with 500 μl Buffer RPE (Qiagen), and eluted with 40 μl of RNase-free water using a microcentrifuge (≧10,000 rpm, 4° C.) for 1 minute. Final RNA samples were stored at −20° C. to prevent degradation. Determination of gene expression using Affymetrix microarrays: Gene expression analysis was conducted using a GeneChip Rat Genome 230 2.0 Array (Affymetrix, West Sacramento, Calif.), with sequences selected from the GENBANK® (World Wide Web at ncbi.nlm.nih.gov) database for expressed sequence tags (dbEST), and Reference Sequence (RefSeq) (Benson et al. (2007) Nucleic Acids Res. 35:D21-25; and Boguski et al. (1993) Nat. Genet. 4:332-333). These sequence clusters were created from the UniGene database (Wheeler et al. (2003) Nucleic Acids Res. 31:28-33; Build 99, June 2002, World Wide Web at ncbi.nlm.nih.gov) and then refined by analysis and comparison with the publicly available draft assembly of the rat genome from the Baylor College of Medicine Human Genome Sequencing Center (Gibbs et al. (2004) Nature 428:493-521). […] GENECHIP® Scanner 3000 and GENECHIP® Operating Software (GCOS) v1.1.1 (Affymetrix, West Sacramento, Calif.), enabled for high-resolution scanning, was used for the final microarray analysis. Differentially expressed genes are listed according to their GeneID number in the National Center for Biotechnology Information (NCBI) database. To ensure accurate analysis, a minimum of 3 ng of good quality total RNA at a concentration of ≧500 pg/μl was required. RNA (1 ng) was tested for its quality using an Agilent 2100 bioanalyzer (Agilent Technologies). A RNA Integrity Number (RIN) was assigned to each sample, and RIN ≧6 was considered satisfactory for proceeding with the microarray analysis. Statistics: The Affymetrix array was used to determine gene expression at 2 weeks and 4 weeks. Uninfarcted control aorta was then compared with both captopril and placebo treated aorta. Similarly, uninfarcted control portal vein was compared with both captopril and placebo treated portal vein. […]

Assay [2] deals with trafficking protein particle complex 1 (Trappc1). As to conditions: 4 weeks post-infarction, higher with surgery.
Excerpt: as §1

The test system of a further assay is TAO kinase 1 (Taok1). As to conditions: 2 weeks, infarcted rats with or without captopril.
Excerpt: as §1

In assay [3] the test system is CCAAT/enhancer binding protein (C/EBP) gamma (Cebpg). As to conditions: 4 weeks post-infarction, higher with surgery.
Excerpt: as §1

Assay [4] relates to chemokine (C-X-C motif) ligand 12 (Cxcl12). As to conditions: 4 weeks, surgery group without treatment less than baseline control.
Excerpt: as §1

In assay [5] the test system is glycerophosphodiester phosphodiesterase (MIR16). As to conditions: 2 weeks, infarcted rats with or without captopril.
Excerpt: as §1

Assay [6] has as its system trimethyllysine hydroxylase epsilon (Tmlhe). As to conditions: 4 weeks, surgery group without treatment less than baseline control.
Excerpt: as §1

For assay [7], the system named is regulated endocrine-specific protein 18 (Resp18). As to conditions: 4 weeks post-infarction, higher with surgery.
Excerpt: as §1

For assay [8], the system named is cytochrome c oxidase subunit Va (Cox5a). As to conditions: 4 weeks post-infarction, higher with surgery.
Excerpt: as §1

The test system of another assay is glutaminase 2 (Gls2). As to conditions: 4 weeks, highest in the infarct group without therapy.
Excerpt: as §1

The next assay has as its system afadin (Af6). As to conditions: 2 weeks, infarcted rats with or without captopril.
Excerpt: as §1

Assay [9] deals with Sel (suppressor of lin-12) 1 homolog 1h. (Sel1h). As to conditions: 2 weeks, infarcted rats with or without captopril.
Excerpt: as §1

Consider `C[C@H](CS)C(=O)N1CCC[C@H]1C(=O)O` [Captopril, 1-[(2S)-3-mercapto-2-methylpropionyl]-L-proline], for which the “ACOT8 aortic expression level versus control rats without surgery” value in assay [1] is listed as “higher”. The “Trappc1 expression in the aorta with captopril therapy versus surgery alone” value in [2] is “further increase in expression”. In the assay with TAO kinase 1 (Taok1), the “Taok1 aortic expression level versus control rats without surgery” value is recorded as “higher”. For the same compound, in [3], the “Cebpg expression in the aorta with captopril therapy versus surgery alone” value is on record as “further increase in expression”. In addition, the “Cxcl12 expression in the aorta with captopril” value in assay [4] is listed as “increased expression”. For the same compound, the “MIR16 aortic expression level versus control rats without surgery” value in assay [5] was “higher”. Further, in assay [6], the “Tmlhe expression in the aorta with captopril” value is “increased expression”. Moreover, the “Resp18 expression in the aorta with captopril therapy versus surgery alone” value in [7] is given as “further increase in expression”. Besides, in assay [8], the “Cox5a expression in the aorta with captopril therapy versus surgery alone” value was “further increase in expression”. Besides, in the assay with glutaminase 2 (Gls2), the “Gls2 expression in the aorta, captopril treated group among the groups” value was “lowest”. Further, the “Af6 aortic expression level versus control rats without surgery” value in the assay with afadin (Af6) is “higher”. In addition, the “Sel1h aortic expression level versus control rats without surgery” value in assay [9] is listed as “higher”.

For the origin of these results see patent US8293481B2, “Biomarkers for chronic vascular dysfunction” (Mayo Foundation for Medical Education and Research, priority 2006, dated 2012).
